From US8906953B2, “Pyrrolidine substitute flavones for the treatment of inflammatory disorders” (Piramal Enterprises Limited, priority 2010, dated 2014)

Legend:
IκBα = assay: TNFα-induced IκBα phosphorylation and degradation, western blot in Jurkat cells; type: cell-based, human; conditions: 0.1 μM, 0.1 nM TNF-α 0-90 minutes
Procedure: The method for IκBα degradation was designed as in reference, The Journal of Immunology, 1999, 103, 6800-6809, the disclosure of which is also incorporated by reference for the teaching of the assay.
Human Jurkat T-cells from American Type Culture Collection (ATCC) were cultivated in Rosewell Park Memorial Institute (RPMI) medium supplemented with 10% fetal bovine serum (FBS), penicillin (100 U/mL) and streptomycin (100 μg/mL) at 37° C. in humidified atmosphere of 95% air-5% CO2. Culture medium was changed every 2-3 days and always 24 hours before harvest. RPMI medium, FBS, CellLytic, anti-β-actin, sodium orthovanadate and anisomycin were purchased from Sigma-Aldrich (USA). TNF-α was purchased from R & D Systems (USA). Complete Protease inhibitor cocktail was procured from Roche.
Jurkat cells were preincubated with vehicle or the compound of example 3 (0.1 μM) for 1 hour in a 37° C., CO2 incubator. For MAPK experiments, the cells were stimulated with anisomycin (10 μg/mL) for 30 minutes. SB 203580 was used as a standard (1 μM). For studies pertaining to degradation of IκBα and IκBα (phospho) the cells were stimulated with 0.1 nM TNF-α for 0, 5, 15, 30, 60 and 90 minutes. […] Aliquots of the resulting extracts were analyzed for their protein content using the Coomassie Plus Protein Assay Reagent (Pierce) following manufacturer's instructions. […]

IL-8 = assay: LPS-induced IL-8 release from hPBMCs (ELISA); type: cell-based; conditions: Homo sapiens
Procedure: Cytokine production by lipopolysaccharides (LPS) in hPBMCs (human peripheral blood mononuclear cells) was measured as in reference, Physiol. Res. 2003, 52, 593-598, the disclosure of which is incorporated by reference for the teaching of the assay. Blood was collected from healthy donors into Potassium EDTA vacutainer tubes (BID vacutainer). The PBMC were isolated using gradient centrifugation in Histopaque-1077 solution (Sigma). Isolated PBMC were suspended in RPMI 1640 (Rosewell Park Memorial Institute) culture medium (Sigma-Aldrich Fine Chemicals, USA) containing 10% fetal bovine serum (FBS) (JRH, USA), 100 U/mL penicillin (Sigma Chemical Co. St Louis, Mo., USA) and 100 μg/mL streptomycin (Sigma Chemical Co. St Louis, Mo.). The cell concentration was adjusted to 1×10^6 cells/mL. The viability as determined by trypan blue dye exclusion was uniform Ly≧98%. The cell suspension (100 μL) was added to the wells of a 96-well culture plate. Following cell plating, 79 μL of the culture medium and 1 μL of various concentrations of test compounds (compounds of formula 1) (final concentration 0.001, 0.003, 0.005, 0.01, 0.025, 0.03, 0.05, 0.1, 0.25, 0.3 and 1 μM) dissolved in DMSO (dimethyl sulfoxide, Sigma, Mo., USA) were added to the cells. The final concentration of DMSO was adjusted to 0.5%. The vehicle (0.5% DMSO) was used as control. […]

CN1CC[C@@H](c2c(O)cc(O)c3c(=O)cc(-c4ccc(C(F)(F)F)cc4Cl)oc23)[C@@H]1CO.Cl [Compound of example 3, (+)-trans-2-(2-Chloro-4-trifluoromethyl-phenyl)-5,7-dihydroxy-8-(2-hydroxymethyl-1-methyl-pyrrolidin-3-yl)-chromen-4-one hydrochloride]
TNFα-induced IkBα phosphorylation and degradation (western blot) (IκBα): blocks TNFα-induced IkBα phosphorylation and degradation
IC50 (IL-8): 1300 nM
